Data on 3 compounds can be found in patent US20130123287A1, “CONTROL AGENT FOR SOFT ROT AND CONTROL METHOD FOR THE SAME” (ISHIHARA SANGYO KAISHA, LTD., priority 2010, published 2013).

Test [1] has as its system bacteria causing the soft rot (Erwinia carotovora). As to the kind of experiment: Inhibition test of growth of bacteria causing soft rot, Reference Test Example 6. The test is classed as cell-based. The settings on record: for formed colonies (growth state), grade: PSA medium, 27 degrees Celsius, 3 days. The source says:
An inhibition test of the growth of bacteria causing the soft rot was done, when a control agent was directly applied to the bacteria causing the soft rot. A given volume of each pesticide of fludioxonil (Seibia FL [trade name] manufactured by Syngenta Japan K.K.), iminoctadine albesilate salt (Bellkute WP [trade name], manufactured by Nippon Soda Co., Ltd.), iprodione (Rovral WP [trade name] manufactured by Bayer Crop Science Co., Ltd.), and streptomycin (Mycin Wettable powder [trade name] manufactured by Hokko Chemical Industry Co., Ltd.) was added together with a suspension of the bacteria causing the soft rot (Erwinia carotovora) to a preliminarily dissolved PSA culture medium (55 degrees Celsius) for subsequent thorough agitation, which was then spread on a plate for culturing at 27 degrees Celsius for 3 days, to examine the growth state. Subsequently, the formed colonies were examined according to the following three grades. • +: at the same level as the level of non-treated lot.
(§1) Plus or minus: apparently less than the colonies of the non-treated lot. • −: almost no colonies observed.

For test [2], the system named is soft rot of Chinese cabbage. As to the kind of experiment: Test for controlling soft rot of Chinese cabbage, Example 3 / Comparative Example 3 (field, cultivar Muso). The test is classed as in vivo. The settings on record: 500 g ai/10 a, 150 L/10 a sprayed onto planting holes before planting, 51 days after start. From the text:
(§2) Frequency of the disease=[sigma(number of plants with the onset of the disease at each severity level*index of the onset of the disease)/(plants examined*4)]*100
(§3) Disease control value=[1-(frequency of the disease in the treated lot/frequency of the disease in the non-treated lot)]*100
(§4) • 0: No onset • 1: Onset in some of outer leaves (shippable) • 2: Onset in outer leaves and some of head leaves (by removing damaged parts, the resulting cabbage can be shipped as small cabbage but is ranked as grade B). • 3: Most of head leaves are inflicted with the onset of the disease or with severer damages (not shippable) • 4: Whole cabbage plant is inflicted with the onset of the disease and is dead.
442 g/l kresoxim-methyl (STROBY FLOWABLE [trade name], manufactured by BASF) was adjusted to 500 g ai/10a (0.5 g/m^2, 1131 ml Product/10a) as the amount of the active ingredient and to 150 L/10a as the volume of diluent water. […]
51 days after the start of the tests, all the plants in each lot were examined about the severity level of the disease to assess the frequency of the disease and the disease control value. The frequency of the disease and the disease control value were determined in the same manner as described above. Because soft rot is a disease with damages hardly controlled, herein, even a chemical at the level C determined by the tests of the effects can practically be used.

In test [3] the test system is soft rot of Chinese cabbage. As to the kind of experiment: Test for controlling soft rot of Chinese cabbage, Example 2 / Comparative Example 2 (field, cultivar Harebutai 65). The test is classed as in vivo. The settings on record: 500 g ai/10 a, 150 L/10 a sprayed onto planting holes before planting, 64 days after start.
Description: as §2, §3, §4
200 g/l Azoxystrobin (Amistar 20 FLOWABLE [trade name], manufactured by Syngenta Japan K.K.) was adjusted to 500 g ai/10a (0.5 g/m^2, 2500 ml Product/10a) as the amount of the active ingredient and to 150 L/10a as the volume of diluent water.
30% w/w triflumizol (TRIFUMIN WP [trade name], manufactured by Nippon Soda Co., Ltd.) was adjusted to 500 g ai/10a (0.5 g/m^2, 1667 g Product/10a) as the amount of the active ingredient and to 150 L/10a as the volume of diluent water.
100 g/1 cyazofamid (RANMAN PLOWABLE [trade name], manufactured by Ishihara Sangyo Kaisha, Ltd.) was adjusted to 500 g ai/10a (0.5 g/m^2, 5000 ml Product/10a) as the amount of the active ingredient and to 150 L/10a as the volume of diluent water.
50% w/w penthiopyrad (GAIA WG [trade name], manufactured by Mitsui Chemicals Agro, Inc.) was adjusted to 500 g ai/10a (0.5 g/m^2, 1000 g Product/10a) as the amount of the active ingredient and to 150 L/10a as the volume of diluent water.
50 g/l flusulfamide (SCABLOCK SC [trade name], manufactured by Mitsui Chemicals Agro, Inc.) was adjusted to 500 g ai/10a (0.5 g/m^2, 10000 ml Product/10a) as the amount of the active ingredient and to 150 L/10a as the volume of diluent water.
400 g/1 chlorothalonil (Daconil 1000 [the trade name], manufactured by Sumitomo Chemical, Limited) was adjusted to 1000 g ai/10a (1.0 g/m^2, 2500 ml Product/10a) as the amount of the active ingredient and to 150 L/10a as the volume of diluent water.
After spreading an agricultural mulch-sheet and opening planting holes (diameter of about 5 cm) for permanent planting through the mulch-sheet, the spray solutions prepared as described above were sprayed onto the planting holes such that the amount of treated active ingredient of chlorothalonil was 1.0 g/m^2 (150 L per 10a) and the amount of each of the remaining spray solutions was 0.5 g/m^2 (150 L per 10a), followed by air-drying; subsequently, seedlings of Chinese cabbage (cultivar Harebutai 65) grown for 4 weeks in cell mold trays (128 holes/nursery box) were planted such that 19 seedlings were planted in each test lot having an area of 2.4 m^2 with two replications.
(§5) Preparation was performed by diluting streptomycin (Mycin 20 wettable powder solution [under the trade name] manufactured by Hokko Chemical Industry Co., Ltd.) with water to 1/1000.
In a field spread with the agricultural mulch-sheet, Chinese cabbage seedlings (cultivar: Harebutai 65) grown by the same method as in Example 2 were planted by the same method as in Example 2, for spraying the spray solution of streptomycin prepared above in (1) (at each spray volume of 300 L/10a) twice (27 days and 48 days after the planting of the seedlings) on the stems and leaves with a sprayer.
64 days after the start of the tests, all the plants in each lot were examined about the severity level of the disease to assess the frequency of the disease and the disease control value. In the same manner as described above, the frequency of the disease and the disease control value were determined. Additionally, soft rot is a disease with damages hardly controlled, so even a chemical at the level C determined by the tests of the effects can practically be used.

Test [4] has as its system soft rot of Chinese cabbage. As to the kind of experiment: Test for controlling soft rot of Chinese cabbage, Example 1 / Comparative Example 1 (field, cultivar Muso). Format: in vivo. The settings on record: 250 g ai/10 a, 150 L/10 a sprayed onto planting holes before planting, 54 days after start. The procedure: 200 g/l Azoxystrobin (Amistar 20 FLOWABLE [trade name], manufactured by Syngenta Japan K.K.) was adjusted to 250 g ai/10a (0.25 g/m^2, 1250 ml Product/10a) as the amount of the active ingredient and to 150 L/10a as the volume of diluent water.
100 g/l Cyazofamid (RANMAN FLOWABLE [trade name], manufactured by Ishihara Sangyo Kaisha, Ltd.) was adjusted to 250 g ai/10a (0.25 g/m^2, 2500 ml Product/10a) as the amount of the active ingredient and to 150 L/10a as the volume of diluent water.
177 g/l Amisulbrom (LEIMAY FLOWABLE [trade name], manufactured by Nissan Chemical Industries, Ltd.) was adjusted individually to 250 g ai/10a (0.25 g/m^2, 1412 ml Product/10a) as the amount of the active ingredient and to 150 L/10a as the volume of diluent water.
After spreading an agricultural mulch-sheet and opening planting holes (diameter of about 9 cm) for permanent planting through the mulch-sheet, the spray solutions prepared as described above were sprayed onto the planting holes such that the amount of treated active ingredient of each spray solution was 0.25 g/m^2 (150 L per 10a), followed by air-drying; subsequently, seedlings of Chinese cabbage (cultivar: Muso) grown for 4 weeks in cell mold trays (128 holes/nursery box) were planted such that 30 seedlings were planted in each test lot having an area of 6 m^2 with two replications.
as §5
In a field spread with the agricultural mulch-sheet, Chinese cabbage seedlings (cultivar: Muso) grown by the same method as in Example 1 were planted by the same method as in Example 1, for spraying the spray solution of streptomycin prepared above in (1) (at each spray volume of 300 L/10a) three times (13 days, 20 days and 27 days after the planting of the seedlings) on the stems and leaves.
54 days after the start of the tests, all the plants in each lot were examined about the severity level of the disease; according to the following equations, the ratio of the plants with the onset of the disease, the frequency of the disease, and the disease control value were calculated to determine and rank the effects at A to D levels. Because soft rot is a disease with damages hardly controlled, herein, even a chemical at the level C determined by the tests of the effects can practically be used.
Ratio of the plants with the onset of the disease=(Number of plants with the onset of the disease/number of plants examined)*100
Frequency of the disease=[sigma(number of plants with the onset of the disease at each severity level*index of the onset of the disease)/(plants examined*4)]*100 […]

The test system of test [5] is bacteria causing the soft rot (Erwinia carotovora). As to the kind of experiment: Inhibition test of growth of bacteria causing soft rot, Reference Test Example 2. The test is classed as cell-based. The settings on record: for formed colonies (growth state), grade: PSA medium, 27 degrees Celsius, 2 days.
Description: (§6) Inhibition test of growth of bacteria causing soft rot of potato An inhibition test of the growth of bacteria causing the soft rot was done, when a control agent was directly applied to the bacteria causing the soft rot. A given volume of each pesticide of azoxystrobin (Amistar-20 FLOWABLE [trade name], manufactured by Syngenta Japan K.K.), penthiopyrad (GAIA WG [trade name], manufactured by Mitsui Chemicals Agro, Inc.), flusulfamide (SCABLOCK SC [trade name] manufactured by Mitsui Chemicals Agro, Inc.), and streptomycin (Mycin Wettable powder [trade name] manufactured by Hokko Chemical Industry Co., Ltd.) was added together with a suspension of the bacteria causing the soft rot (Erwinia carotovora) to a preliminarily dissolved PSA culture medium (55 degrees Celsius) for subsequent thorough agitation, which was then spread on a plate for culturing at 27 degrees Celsius for 2 days, to examine the growth state. Subsequently, the formed colonies were examined according to the following three grades. • +: at the same level as the level of non-treated lot.
as §1

Test [6] has the same test system. As to the kind of experiment: Inhibition test of growth of bacteria causing soft rot, Reference Test Example 1. The test is classed as cell-based. The settings on record: for formed colonies (growth state), grade: PSA medium, 25 degrees Celsius, 4 days. As for the experimental part: as §6, with “An” for “Inhibition test of growth of bacteria causing soft rot of potato An”, “cyazofamid (RANMAN 400SC [trade name] manufactured by Ishihara Sangyo Kaisha, Ltd.), amisulbrom (LEIMAY” for “azoxystrobin (Amistar-20”, “Nissan Chemical Industries, Ltd.)” for “Syngenta Japan K.K.), penthiopyrad (GAIA WG [trade name], manufactured by Mitsui Chemicals Agro, Inc.), flusulfamide (SCABLOCK SC [trade name] manufactured by Mitsui Chemicals Agro, Inc.),”, “25” for “27”, “4” for “2”
as §1

[7] abbreviates: active ingredient concentration of 1,000 ppm.

As for “1,1′-iminodi(octamethylene)diguanidinium=tris(alkylbenzenesulfonate) [Iminoctadine albesilate salt]”, the “formed colonies (growth state), grade” value in test [1] (100 ppm active ingredient) is “+, +”; in test [1] (500 ppm active ingredient) it was “+, +”; in test [1] (1000 ppm active ingredient), “+, +”. Moreover, in test [1] (setting [7]), the “inhibition of growth of Erwinia carotovora (in words)” value (shortened to “inhibition”) is reported as “never inhibited the growth”. For the same compound, the Determination of effect entry in test [2] is “B (B: Effective (41 to 60 disease control value))”.

Consider `CO/C=C(/C(=O)OC)c1ccccc1Oc1cc(Oc2ccccc2C#N)ncn1` [Azoxystrobin, methyl=(E)-2-{2-[6-(2-cyanophenoxy)pyrimidin-4-yloxy]phenyl}-3-methoxyacrylate], for which the values for the Determination of effect entry in test [3] and in test [4] were “B (B: Effective (41 to 60 disease control value))” and “C (C: Effective at low level (21 to 40 disease control value))”, respectively. Further, the “formed colonies (growth state), grade” value was “+, +” in test [5] (100 ppm active ingredient); “+, +” in test [5] (500 ppm active ingredient); “+, +” in test [5] (1000 ppm active ingredient). The “inhibition” value in test [5] (setting [7]) was “never inhibited the growth”.

For the compound `Cc1ccc(-c2c(Cl)nc(C#N)n2S(=O)(=O)N(C)C)cc1` [Cyazofamid, 4-chloro-2-cyano-N,N-dimethyl-5-p-tolylimidazole-1-sulfoneamide], the results for the Determination of effect result in test [3] and in test [4] were “C (C: Effective at low level (21 to 40 disease control value))” and “D (D: Poorly effective (20 or smaller disease control value))”, respectively. Further, the “formed colonies (growth state), grade” value in test [6] (100 ppm active ingredient) is “+, +”; in test [6] (500 ppm active ingredient), “+, +”; in test [6] (1000 ppm active ingredient), “+, +”. For the same compound, in test [6] (setting [7]), the “inhibition” value is “never inhibited the growth”.
